Measured values: paper PMC2365198, “Chemistry and Pharmacokinetics of Gallium Maltolate, a Compound With High Oral Gallium Bioavailability” (Metal-Based Drugs, 2000)
Where “and” joins values, the source holds several entries; their conditions need not be identical. Identical values can stand only once. Values belong to the molecule of their own block, whether it stands above or below them.

Key:
[1] = dog, in vivo, 1.5 mg/kg
[2] = parameters: method as in earlier work; conditions: human cancer patients, single oral dose 800 mg (317 mg Ga); cited from earlier work
[3] = Pharmacokinetics of single oral dose of gallium chloride in cancer patients (data of Collery et al.); format: in vivo, human; conditions: data of ref 12
healthy human subjects = experiment: Clinical single-dose escalation study, safety and tolerability
Solubility in water = format: physicochemical; conditions: 25 C; listed as GaM
[4] = Clinical single-dose escalation study, pharmacokinetics of oral gallium maltolate (serum and urine gallium); conditions: human; for FAe: cumulative urinary excretion as fraction of administered dose: 72h; for F (V=29.5 L): from V/F
[5] = Stability of dilute aqueous solution as a function of pH (absorbance at 303 nm); format: physicochemical
[6] = human, in vivo, po
[7] = Dog bioavailability study (serum gallium); conditions: healthy young beagle dogs, intraduodenal or oral
[8] = single oral dose 100 mg [15.7 mg Ga]
[9] = single oral dose 200 mg [31.3 mg Ga]
[10] = single oral dose 300 mg [47.0 mg Ga]
[11] = single oral dose 500 mg [78.4 mg Ga]

Compound: O=[N+]([O-])[O-].O=[N+]([O-])[O-].O=[N+]([O-])[O-].[Ga+3] [Ga nitrate, gallium nitrate]
Cmax [1]: 0.31 (0.02) lg/mL | K01 half life [1]: 0.8(0.2) h | Tmax [1]: 3.1 (0.4) h | beta half life [1]: 9.9(2.4) h

Gallium bioavailability using the estimated value for V/F ([3]; human cancer patients, single oral dose 800 mg (317 mg Ga)): approximately 0.010 | Estimated oral bioavailability ([3]; human, oral): ≤ 2%
Compound: [Cl][Ga]([Cl])[Cl] [GaCI3, gallium chloride]
Estimated V/F [2]: 2862(297) L

Compound: Cc1occc(=O)c1[O-].Cc1occc(=O)c1[O-].Cc1occc(=O)c1[O-].[Ga+3] [gallium maltolate, tris(3-hydroxy-2-methyl-4H-pyran-4-onato)gallium]
Change in renal function (serum creatinine clearance, serum urea, BUN clearance, urinary microglobulin, urinalysis) (healthy human subjects; healthy human subjects, oral): none of the subjects who took oral GaM showed any change in renal function | Serious treatment-related adverse events (healthy human subjects; healthy human subjects, single oral doses 100-500 mg): no reports of serious treatment-related adverse events | Subjects reporting possible drug-related adverse events (healthy human subjects; healthy human subjects, single oral doses 100-500 mg, mild headache (100 mg), moderate coughs (200 mg)): Three of the twelve subjects | Tolerability (healthy human subjects; healthy human volunteers, single oral doses of 100, 200, 300 and 500 mg): very well tolerated | Solubility in water (Solubility in water): 10.7 ± 0.9 mg/mL and 24(2) mM | Dose dependence of absorption ([4]; oral, dosage range 100-500 mg): dose proportional | Urinary Ga excretion, of the administered dose ([4]; oral, over 72h): approximately 2% | Ae: cumulative urinary excretion of gallium in 72h [4, 8]: 0.35(0.14) mg | Lag time [4, 8]: 0.32(0.05) h | FAe: cumulative urinary excretion as fraction of administered dose [4, 8]: 0.022(0.001) | F (V=29.5 L) [4, 8]: 0.28 | Ae: cumulative urinary excretion of gallium in 72h [4, 9]: 0.66(0.28) mg | Lag time [4, 9]: 0.42(0.04) h | FAe: cumulative urinary excretion as fraction of administered dose [4, 9]: 0.021(0.001) | F (V=29.5 L) [4, 9]: 0.35 | Ae: cumulative urinary excretion of gallium in 72h [4, 10]: 1.11(0.08) mg | Lag time [4, 10]: 0.24(0.06) h | FAe: cumulative urinary excretion as fraction of administered dose [4, 10]: 0.023(0.000) | F (V=29.5 L) [4, 10]: 0.40 | Ae: cumulative urinary excretion of gallium in 72h [4, 11]: 1.37(0.52) mg | Lag time [4, 11]: 0.20(0.08) h | FAe: cumulative urinary excretion as fraction of administered dose [4, 11]: 0.018(0.001) | F (V=29.5 L) [4, 11]: 0.25 | Central compartment excretion half life ([4]; single oral doses 100-500 mg): 17 to 21 h | Estimated oral gallium bioavailability ([4]; single oral doses 100-500 mg, comparison with published i.v. gallium nitrate data): 25-57% | Dissociation in dilute aqueous solution ([5]; 2.5 x 10^-5 M, pH 5.5-8.0): little dissociation | Gallium maltolate complex undissociated ([5]; dilute aqueous solution (2.5 x 10^-5 M), pH approximately 5.5 to 8): at least 98% | F, range over doses (from V/F with V 29.5 L) [6]: 0.25-0.40 | Absorption of Ga into blood plasma relative to intraduodenal Ga nitrate [7]: several times higher
